# In the supplement of paper PMC10307832:
# Assays:
# Test in all cases: relative viability (nuclei count vs DMSO), 5 days (fraction); higher = more cells survive
# [1] = compound: C1=CC=C2C(=C1)C=CC(=C2SSC3=C(C=CC4=CC=CC=C43)O)O [IPA-3] + Cc1cc(Nc2cc(N3CCN(C)CC3)nc(Sc3ccc(NC(=O)C4CC4)cc3)n2)n[nH]1 [Tozasertib] (partner 0.1 µM)
# Method in brief: (§1)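 Lung cancer cell lines were seeded in 1536-well plates and dosed by pin tool the next day, with either a single drug or a fixed anchor-drug dose combined with five library-drug doses (not always all listed) spaced in √10 steps. Five days later, one step fixed the cells and stained their nuclei (final 0.05% Triton X-100, 1% formaldehyde, 1 ug/ml Hoechst), and nuclei were counted on 4× images. Relative viability is the nuclei count in treated wells divided by the count in vehicle wells, and each value is the median of duplicate plates.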
# [2] = compound: C1=CC=C2C(=C1)C=CC(=C2SSC3=C(C=CC4=CC=CC=C43)O)O [IPA-3] + O=C(c1cc(Cc2n[nH]c(=O)c3ccccc23)ccc1F)N1CCN(C(=O)C2CC2)CC1 [Olaparib] (partner 8 µM)
# Method in brief: as §1
# [3] = compound: Cc1ccc(-n2nc(C(C)(C)C)cc2NC(=O)Nc2ccc(OCCN3CCOCC3)c3ccccc23)cc1 [Doramapimod] + C[C@]1(O)C[C@@H](c2nc(-c3ccc4ccc(-c5ccccc5)nc4c3)c3c(N)nccn32)C1 [Linsitinib] (partner 1 µM)
# Method in brief: as §1
# [4] = compound: Cc1ccc(-n2nc(C(C)(C)C)cc2NC(=O)Nc2ccc(OCCN3CCOCC3)c3ccccc23)cc1 [Doramapimod] + N=C(N)NC(=N)NCCc1ccccc1 [Phenformin] (partner 250 µM)
# Method in brief: as §1
Cell Line,relative viability ([1]; first compound 0.2 µM),relative viability ([1]; first compound 0.6325 µM),relative viability ([1]; first compound 2 µM),relative viability ([1]; first compound 6.325 µM),relative viability ([1]; first compound 20 µM),relative viability ([2]; first compound 0.2 µM),relative viability ([2]; first compound 0.6325 µM),relative viability ([2]; first compound 2 µM),relative viability ([2]; first compound 6.325 µM),relative viability ([2]; first compound 20 µM),relative viability ([3]; first compound 0.02 µM),relative viability ([3]; first compound 0.06325 µM),relative viability ([3]; first compound 0.2 µM),relative viability ([3]; first compound 0.6325 µM),relative viability ([3]; first compound 2 µM),relative viability ([4]; first compound 0.02 µM),relative viability ([4]; first compound 0.06325 µM),relative viability ([4]; first compound 0.2 µM),relative viability ([4]; first compound 0.6325 µM),relative viability ([4]; first compound 2 µM)
SK-LU-1,0.328,0.36,0.338,0.339,0.302,0.536,0.456,0.494,0.389,0.466,1.07,1.02,1.2,1.16,0.941,0.613,0.516,0.542,0.61,0.46
LOU-NH91,0.649,0.669,0.649,0.656,0.742,0.953,0.911,0.965,0.896,1.03,0.967,0.91,0.972,1.06,0.686,0.76,0.671,0.735,0.774,0.417
LXF-289,0.23,0.164,0.218,0.186,0.192,1.22,1,1.09,1.07,1.23,0.961,0.92,0.896,0.933,0.939,0.491,0.556,0.472,0.459,0.44
NCI-H1299,–,–,–,–,–,1.02,0.953,0.983,0.963,0.983,1,1.04,1.01,1.06,0.985,–,–,–,–,–
HARA,0.133,0.132,0.153,0.485,0.118,0.8,0.802,0.971,0.694,0.676,0.943,0.901,0.904,0.987,0.805,0.464,0.495,0.464,–,0.425
LU99A,0.325,0.255,0.213,0.267,0.239,0.304,0.268,0.291,0.277,0.249,0.504,0.535,0.47,0.503,0.457,0.768,0.851,0.942,0.846,0.712
201T,0.99,1,0.908,0.922,1.06,0.833,0.845,0.833,0.83,0.885,1.05,1.07,0.971,1.03,0.958,0.453,0.471,0.448,0.497,0.394
HCC-827,0.446,0.423,0.402,0.442,0.438,0.818,0.579,0.557,0.737,0.638,1,0.918,0.952,0.933,0.752,0.418,0.416,0.376,0.432,0.286
